According to patent publication US7229630B2, “Stabilized formulations of alpha adrenergic receptor antagonists and the uses thereof” (Novalar Pharmaceuticals, Inc., priority 2002, dated 2007):
Where a name gives a salt, the structure may show the parent alone.

Key:
human subjects = assay: Reversal of local anesthesia (polocaine with levonordefrin) by LARA vs saline, bilateral injection; format: in vivo; details: three subjects, 1.6 ml of 0.05 mg/ml phentolamine mesylate
Method: An injection of the physiological saline vehicle (without phentolamine mesylate) served as the control. […] This was followed by injection of the phentolamine mesylate containing local anesthetic reversal agent (LARA) into one side of the oral cavity, and injection of the saline vehicle (control) solution into the opposite side of the oral cavity. The time to reversal of the local anesthetic effect on both sides was then recorded to determine whether there is a difference between the two sides.
The local anesthetic used was 2% polocaine (mepivacaine hydrochloride) with levonordefrin (1:20,000=0.05 mg/ml) (levonordefrin injection, USP) (Astra USA, Inc., Westborough, Mass. 01581). Levonordefrin is a sympathomimetic amine with a pharmacological profile similar to that of epinephrine, but with a lower potency.
Three healthy, male human subjects, age 34–50, volunteered to have local anesthetic injected in the mouth bilaterally under the lip in an easily repeatable location. The exact time of each injection was recorded. The position chosen was above (apical) the prominence of the root of the upper cuspid teeth. This is a common site selected to numb the cuspids, lateral incisors and upper lip. The volume of the local anesthetic injected was 1.7+0.1 ml on each side of the mouth. […]

[1] = Effect of additives on stability at 60° C. (HPLC); format: physicochemical; details: for Rate Constant: zero-order
Text: The drug is monitored at a detection wavelength of 232 nm.
The additives in this study are selected from five groups of injectable excipients namely, tonicity modifiers (NaCl and d-mannitol), metal chelators (EDTA), antioxidants (sodium metabisulfite), complexing agents (α-cyclodextrin and niacinamide) and solvents (glycerol and polypropylene glycol). A tonicity modifier is required for adjusting the phentolamine mesylate solution to isotonic. […] Complexing agents were applied in the hope that a possible formation of an inclusion complex (by α-cyclodextrin) or stacking complex (by niacinamide) with phentolamine would modify the rate of hydrolytic degradation of the drug substance. Solvents were added to reduce the dielectric constant of the vehicle and were intended to slow the rate of degradation due to solvent polarity.
The pH value of the solutions was readjusted to pH 3.5, as required.
The 25% glycerol (25 g in 100 ml total volume with water) and 25% polypropylene glycol (25 g in 100 ml total volume with water) solutions had their buffer strength adjusted by addition of acetic acid followed by addition of 2 N NaOH for pH adjustment to pH 3.5 followed by addition of the drug to 0.1 mg/ml.
All samples were placed in 10 ml glass serum vials, stoppered with rubber closures with an inert coating (Daikyo Flurotec by WEST Pharmaceutical), and sealed with flip-top caps after sampling. Vials were placed at 60° C. after the weights were recorded.
Sampling occurred at the initial time point and on days 2, 7, and 14. Vials were weighed, sampled, sealed, re-weighed, and replaced under the selected storage condition until testing at the subsequent time point. Records indicate no significant weight loss during storage.

[2] = EDTA 0.7 mg/ml, sodium acetate pH 3.5, 60° C., Day 14
[3] = Glycerol 25% w/v, sodium acetate pH 3.5, 60° C., Day 7
[4] = NaCl 50 mg/ml, sodium acetate pH 3.5, 60° C., Day 0
[5] = NaCl 50 mg/ml, sodium acetate pH 3.5, 60° C., Day 2
[6] = NaCl 50 mg/ml, sodium acetate pH 3.5, 60° C., Day 7
[7] = NaCl 50 mg/ml, sodium acetate pH 3.5, 60° C., Day 14
[8] = Niacinamide 50 mg/ml, sodium acetate pH 3.5, 60° C., Day 0
[9] = Niacinamide 50 mg/ml, sodium acetate pH 3.5, 60° C., Day 2
[10] = Niacinamide 50 mg/ml, sodium acetate pH 3.5, 60° C., Day 7
[11] = Niacinamide 50 mg/ml, sodium acetate pH 3.5, 60° C., Day 14
[12] = No additive, pH 3.5, 60° C., Day 0
[13] = No additive, pH 3.5, 60° C., Day 2
[14] = No additive, pH 3.5, 60° C., Day 7
[15] = No additive, pH 3.5, 60° C., Day 14
[16] = Sodium metabisulfite 0.5 mg/ml, sodium acetate pH 3.5, 60° C., Day 0
[17] = Sodium metabisulfite 0.5 mg/ml, sodium acetate pH 3.5, 60° C., Day 7
[18] = Sodium metabisulfite 0.5 mg/ml, sodium acetate pH 3.5, 60° C., Day 14
[19] = d-Mannitol 40 mg/ml, sodium acetate pH 3.5, 60° C., Day 0
[20] = d-Mannitol 40 mg/ml, sodium acetate pH 3.5, 60° C., Day 2
[21] = d-Mannitol 40 mg/ml, sodium acetate pH 3.5, 60° C., Day 7
[22] = d-Mannitol 40 mg/ml, sodium acetate pH 3.5, 60° C., Day 14

Cc1ccc(N(CC2=NCCN2)c2cccc(O)c2)cc1 [Phentolamine Mesylate, phentolamine mesylate]
side-effects (human subjects): no side-effects of any kind were noted
Phentolamine Purity ([1]; EDTA 0.7 mg/ml, sodium acetate pH 3.5, 60° C., Day 0): 99 % Peak Area
Phentolamine Purity ([1]; EDTA 0.7 mg/ml, sodium acetate pH 3.5, 60° C., Day 2): 99 % Peak Area
Phentolamine Purity ([1]; EDTA 0.7 mg/ml, sodium acetate pH 3.5, 60° C., Day 7): 99 % Peak Area
Phentolamine Concentration [1, 2]: 99 µg/mL
Phentolamine Purity [1, 2]: 98 % Peak Area
Phentolamine Purity ([1]; Glycerol 25% w/v, sodium acetate pH 3.5, 60° C., Day 0): 98 % Peak Area
Phentolamine Purity ([1]; Glycerol 25% w/v, sodium acetate pH 3.5, 60° C., Day 2): 98 % Peak Area
Phentolamine Concentration [1, 3]: 120 µg/mL
Phentolamine Purity [1, 3]: 93 % Peak Area
Phentolamine Purity ([1]; Glycerol 25% w/v, sodium acetate pH 3.5, 60° C., Day 14): 94 % Peak Area
Phentolamine Concentration [1, 4]: 94 µg/mL
Phentolamine Purity [1, 4]: 94 % Peak Area
Phentolamine Concentration [1, 5]: 98 µg/mL
Phentolamine Purity [1, 5]: 99 % Peak Area
Phentolamine Concentration [1, 6]: 80 µg/mL
Phentolamine Purity [1, 6]: 89 % Peak Area
Phentolamine Concentration [1, 7]: 74 µg/mL
Phentolamine Purity [1, 7]: 85 % Peak Area
Phentolamine Concentration [1, 8]: 90 µg/mL
Phentolamine Purity [1, 8]: 99 % Peak Area
Phentolamine Concentration [1, 9]: 90 µg/mL
Phentolamine Purity [1, 9]: 100 % Peak Area
Phentolamine Concentration [1, 10]: 78 µg/mL
Phentolamine Purity [1, 10]: 93 % Peak Area
Phentolamine Concentration [1, 11]: 92 µg/mL
Phentolamine Purity [1, 11]: 90 % Peak Area
Phentolamine Concentration [1, 12]: 90 µg/mL
Phentolamine Purity [1, 12]: 99 % Peak Area
Phentolamine Concentration [1, 13]: 92 µg/mL
Phentolamine Purity [1, 13]: 98 % Peak Area
Phentolamine Concentration [1, 14]: 82 µg/mL
Phentolamine Purity [1, 14]: 98 % Peak Area
Phentolamine Concentration [1, 15]: 77 µg/mL
Phentolamine Purity [1, 15]: 97 % Peak Area
Phentolamine Purity ([1]; Polypropylene glycol 25% w/v, sodium acetate pH 3.5, 60° C., Day 0): 93 % Peak Area
Phentolamine Purity ([1]; Polypropylene glycol 25% w/v, sodium acetate pH 3.5, 60° C., Day 2): 97 % Peak Area
Phentolamine Purity ([1]; Polypropylene glycol 25% w/v, sodium acetate pH 3.5, 60° C., Day 7): 93 % Peak Area
Phentolamine Purity ([1]; Polypropylene glycol 25% w/v, sodium acetate pH 3.5, 60° C., Day 14): 90 % Peak Area
Phentolamine Concentration [1, 16]: 97 µg/mL
Phentolamine Purity [1, 16]: 97 % Peak Area
Phentolamine Purity ([1]; Sodium metabisulfite 0.5 mg/ml, sodium acetate pH 3.5, 60° C., Day 2): 99 % Peak Area
Phentolamine Concentration [1, 17]: 84 µg/mL
Phentolamine Purity [1, 17]: 95 % Peak Area
Phentolamine Concentration [1, 18]: 74 µg/mL
Phentolamine Purity [1, 18]: 92 % Peak Area
Phentolamine Concentration [1, 19]: 98 µg/mL
Phentolamine Purity [1, 19]: 96 % Peak Area
Phentolamine Concentration [1, 20]: 96 µg/mL
Phentolamine Purity [1, 20]: 97 % Peak Area
Phentolamine Concentration [1, 21]: 98 µg/mL
Phentolamine Purity [1, 21]: 96 % Peak Area
Phentolamine Concentration [1, 22]: 91 µg/mL
Phentolamine Purity [1, 22]: 97 % Peak Area
impact of additive on stability ([1]; d-Mannitol and disodium EDTA, based on the rate constant, 60° C.): improve stability
impact of additive on recovery vs no-additive control ([1]; sodium metabisulfite, NaCl, glycerol, polypropylene glycol and niacinamide, 60° C.): negative impact on the recovery
Rate Constant ([1]; EDTA 0.7 mg/ml, sodium acetate pH 3.5, 60° C.): 0.438 µg/mL/day
Rate Constant ([1]; Glycerol 25% w/v, sodium acetate pH 3.5, 60° C.): 0.726 µg/mL/day
Rate Constant ([1]; NaCl 50 mg/ml, sodium acetate pH 3.5, 60° C.): 1.663 µg/mL/day
Rate Constant ([1]; Niacinamide 50 mg/ml, sodium acetate pH 3.5, 60° C.): -0.026 µg/mL/day
Rate Constant ([1]; No additive, pH 3.5, 60° C.): 1.027 µg/mL/day
Rate Constant ([1]; Polypropylene glycol 25% w/v, sodium acetate pH 3.5, 60° C.): 1.019 µg/mL/day
Rate Constant ([1]; Sodium metabisulfite 0.5 mg/ml, sodium acetate pH 3.5, 60° C.): 1.903 µg/mL/day
Rate Constant ([1]; d-Mannitol 40 mg/ml, sodium acetate pH 3.5, 60° C.): 0.416 µg/mL/day
Rate Constant ([1]; α-Cyclodextrin 50 mg/ml, sodium acetate pH 3.5, 60° C.): 0.501 µg/mL/day
Phentolamine Purity ([1]; α-Cyclodextran 50 mg/ml, sodium acetate pH 3.5, 60° C., Day 0): 98 % Peak Area
Phentolamine Purity ([1]; α-Cyclodextran 50 mg/ml, sodium acetate pH 3.5, 60° C., Day 2): 99 % Peak Area
Phentolamine Purity ([1]; α-Cyclodextran 50 mg/ml, sodium acetate pH 3.5, 60° C., Day 7): 98 % Peak Area
Phentolamine Purity ([1]; α-Cyclodextran 50 mg/ml, sodium acetate pH 3.5, 60° C., Day 14): 98 % Peak Area
Phentolamine Concentration ([1]; α-Cyclodextrin 50 mg/ml, sodium acetate pH 3.5, 60° C., Day 2): 99 µg/mL
Phentolamine Concentration ([1]; α-Cyclodextrin 50 mg/ml, sodium acetate pH 3.5, 60° C., Day 7): 96 µg/mL
Phentolamine Concentration ([1]; α-Cyclodextrin 50 mg/ml, sodium acetate pH 3.5, 60° C., Day 14): 94 µg/mL
impact of additive on stability ([1]; α-cyclodextrin, based on purity value, 60° C.): negligible
